Among the test systems are CAKI-1; EKVX; HCC 2998; HCT-15; HOP-62; HOP-92; LOX IMVI; M14; MDA-MB-435; MOLT-4; Malme-3M; NCI-H226; NCI-H522; RPMI-8226; SK-MEL-2; SNB-75; T47D; UACC-257; U-251.
Holding throughout (test): inhibition of tumour cell growth, NCI panel, 48 h

This is an account of results in ChEMBL document CHEMBL1201862, “PubChem BioAssay data set” (2004).

The structures appear in SMILES notation.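 How tested: cells in 96-well plates exposed to compound for 48 hours at five concentrations. GI50: concentration for 50% inhibition of growth.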 Calls of active or inactive are those of the source. Rule as the data show it: active = GI50 up to about 1.1 µM and inactive = higher. A value given as a limit tells only on which side of the number the result lay.

In the case of `NC(=O)C(Nc1ccc(Cl)cc1)c1cc2cc(Br)ccc2nc1Cl` (centres undefined), the GI50 in the assay on CAKI-1 is > 50 µM (inactive); with EKVX it was 18.6 µM (inactive); in the assay on HCC 2998, > 50 µM (inactive); with HCT-15, over 50 µM; in the assay on HOP-62, > 50 µM (inactive); in the assay on HOP-92 it was 17.7 µM (inactive). In addition, the GI50 with LOX IMVI was > 50 µM (inactive); in the assay on M14, > 50 µM (inactive); in the assay on MDA-MB-435, 32.7 µM (inactive); in the assay with MOLT-4 it was 19.5 µM (inactive); with Malme-3M it was > 50 µM (inactive); in the assay with NCI-H226, > 50 µM (inactive). The GI50 with NCI-H522 is 31.5 µM (inactive); in the assay with RPMI-8226 it was 27.8 µM (inactive); with SK-MEL-2 it was > 50 µM (inactive); with SNB-75 it was > 50 µM (inactive); in the assay on T47D, 37.2 µM (inactive); with UACC-257 it was > 50 µM (inactive).
Turning to `O=C1N[C@H]2c3c(Cl)sc(Cl)c3C(=O)[C@H]2O1`, the GI50 is 17.8 µM (inactive) with CAKI-1; 12.3 µM (inactive) with EKVX; 5.46 µM (inactive) in the assay on HCC 2998; 2.38 µM in the assay on HCT-15; 20.9 µM (inactive) in the assay on HOP-62; 18.5 µM (inactive) in the assay with HOP-92. The GI50 is 3.61 µM (inactive) in the assay with LOX IMVI; 9.82 µM (inactive) with M14; 14.3 µM (inactive) with MDA-MB-435; 2.01 µM (inactive) in the assay on MOLT-4; 10.1 µM (inactive) in the assay on Malme-3M; 17.9 µM (inactive) in the assay on NCI-H226. Moreover, the GI50 in the assay with NCI-H522 is 1.68 µM (inactive); in the assay with RPMI-8226, 19.7 µM (inactive); in the assay on SK-MEL-2, 24 µM (inactive); in the assay with SNB-75 it was 19.1 µM (inactive); in the assay with T47D, 31.6 µM (inactive); with U-251 it was 5.51 µM (inactive). Further, the GI50 in the assay with UACC-257 was 16.8 µM (inactive).
As to `c1cc(-c2sc(-c3ccncc3)c(-c3ccncc3)c2-c2ccncc2)ccn1`, the GI50 in the assay with CAKI-1 was 36.9 µM (inactive); with EKVX, 13.1 µM (inactive); in the assay on HCC 2998, 3.27 µM (inactive); with HCT-15, 18.5 µM; in the assay on HOP-62 it was 18.5 µM (inactive); in the assay with HOP-92, 11.4 µM (inactive). Also, the GI50 was 13.6 µM (inactive) in the assay on LOX IMVI; 16.5 µM (inactive) in the assay with M14; 14.6 µM (inactive) with MDA-MB-435; 12 µM (inactive) in the assay with MOLT-4; 17.7 µM (inactive) in the assay with Malme-3M; 14.6 µM (inactive) in the assay with NCI-H226. Also, the GI50 in the assay on NCI-H522 is 15.5 µM (inactive); with RPMI-8226, 33.9 µM (inactive); with SK-MEL-2 it was 20.1 µM (inactive); in the assay with SNB-75, 14 µM (inactive); with T47D, 32.4 µM (inactive); in the assay with U-251, 14.1 µM (inactive). Also, the GI50 with UACC-257 was 17 µM (inactive).
For `c1ccc2c(c1)N=c1ccccc1=P21c2ccccc2Nc2ccccc21`, the GI50 was 2.4 µM (inactive) with CAKI-1; 5.04 µM (inactive) with EKVX; 0.598 µM (active) with HCC 2998; 17.2 µM in the assay on HCT-15; 0.908 µM (active) in the assay with HOP-62; 0.332 µM (active) in the assay with HOP-92. Besides, the GI50 with LOX IMVI is 0.953 µM (active); in the assay on M14, 0.518 µM (active); in the assay on MDA-MB-435 it was 0.39 µM (active); with MOLT-4, 0.3 µM (active); in the assay with Malme-3M it was 0.242 µM (active); with NCI-H226, 0.577 µM (active). The GI50 was 0.216 µM (active) in the assay with NCI-H522; 0.156 µM (active) with RPMI-8226; 0.256 µM (active) with SK-MEL-2; 0.246 µM (active) in the assay on SNB-75; 0.192 µM (active) in the assay with T47D; 0.366 µM (active) in the assay with U-251. In the assay with UACC-257, the GI50 was 0.39 µM (active).
On to `COc1ccc(CN(Cc2ccc(OC)cc2)C(=O)CC2(O)C=CCC2)cc1` (centres undefined), for which the GI50 in the assay on CAKI-1 was 46.7 µM (inactive); in the assay with EKVX, 46.1 µM (inactive); in the assay with HCC 2998 it was 69.2 µM (inactive); in the assay on HCT-15 it was 78.7 µM; in the assay with HOP-62 it was > 100 µM (inactive); with HOP-92 it was > 100 µM (inactive). The GI50 in the assay with LOX IMVI is > 100 µM (inactive); in the assay with M14 it was > 100 µM (inactive); in the assay on MDA-MB-435, 71.4 µM (inactive); with MOLT-4, 31.6 µM (inactive); in the assay on Malme-3M it was > 100 µM (inactive); with NCI-H226, > 100 µM (inactive). Also, the GI50 with NCI-H522 was 32.7 µM (inactive); in the assay with RPMI-8226 it was 31.6 µM (inactive); in the assay with SK-MEL-2, 56.6 µM (inactive); with SNB-75 it was 81.8 µM (inactive); with T47D, 39.4 µM (inactive); with U-251 it was 90.8 µM (inactive). In the assay with UACC-257, the GI50 was 43.4 µM (inactive).
In the case of `N#Cc1c(-c2ccc([N+](=O)[O-])cc2)cc(-c2ccc(Nc3ccnc4cc(Cl)ccc34)cc2)nc1N`, the GI50 in the assay with CAKI-1 is 20.9 µM (inactive); with EKVX, 16.9 µM (inactive); in the assay with HCC 2998 it was 11.4 µM (inactive); in the assay on HCT-15, 2.76 µM; in the assay on HOP-62 it was 9.46 µM (inactive); with HOP-92 it was 29.7 µM (inactive). The GI50 with LOX IMVI was 1.45 µM (inactive); in the assay with M14, 21.1 µM (inactive); in the assay with MDA-MB-435 it was 3.35 µM (inactive); with MOLT-4 it was 1.81 µM (inactive); in the assay with Malme-3M, 21.5 µM (inactive); with NCI-H226, > 72.1 µM (inactive). Moreover, the GI50 is 3.85 µM (inactive) with NCI-H522; 5.02 µM (inactive) in the assay on RPMI-8226; 14.7 µM (inactive) with SK-MEL-2; 11.4 µM (inactive) with SNB-75; 4.81 µM (inactive) in the assay with T47D; 1.84 µM (inactive) in the assay with U-251. For the same compound, the GI50 in the assay with UACC-257 was 26.5 µM (inactive).
As to `CCCCNC(=S)Nc1nc(C(=O)NNC(=O)c2ccccc2)cs1`, the GI50 with CAKI-1 is 20.9 µM (inactive); in the assay on EKVX, 12.8 µM (inactive); with HCC 2998 it was 13.7 µM (inactive); in the assay with HCT-15, 6 µM; in the assay with HOP-62 it was 18 µM (inactive); with HOP-92, 40.2 µM (inactive). For the same compound, the GI50 was 10.1 µM (inactive) with LOX IMVI; 14.9 µM (inactive) in the assay on M14; 19.7 µM (inactive) in the assay on MDA-MB-435; 20.5 µM (inactive) in the assay with MOLT-4; 18.7 µM (inactive) in the assay on Malme-3M; 21.3 µM (inactive) in the assay on NCI-H226. The GI50 in the assay with NCI-H522 was 19.3 µM (inactive); with RPMI-8226, 26.1 µM (inactive); with SK-MEL-2, 19.6 µM (inactive); with SNB-75 it was 32.6 µM (inactive); in the assay on T47D it was 11.5 µM (inactive); in the assay on U-251, 11.8 µM (inactive). Besides, the GI50 in the assay with UACC-257 is 17.9 µM (inactive).
Regarding `CC1=C(CO)C(=O)O[C@@H]([C@@H](CO)[C@H]2CCC3C4C[C@@H](O)[C@@]5(O)CC=CC(=O)[C@]5(C)C4CC[C@@]32C)C1` (some centres undefined), the GI50 is > 100 µM (inactive) in the assay with CAKI-1; > 100 µM (inactive) in the assay with EKVX; 29.2 µM (inactive) with HCC 2998; 32 µM in the assay with HCT-15; 23.5 µM (inactive) in the assay with HOP-62; 71 µM (inactive) in the assay on HOP-92. Besides, the GI50 was 38.5 µM (inactive) with LOX IMVI; 53.7 µM (inactive) in the assay with M14; 38.5 µM (inactive) in the assay on MDA-MB-435; 36.3 µM (inactive) in the assay on MOLT-4; 94 µM (inactive) in the assay with Malme-3M; > 100 µM (inactive) in the assay on NCI-H226. The GI50 with NCI-H522 is 39.2 µM (inactive); in the assay with RPMI-8226 it was 34.3 µM (inactive); with SK-MEL-2, 53.6 µM (inactive); with SNB-75, 35.6 µM (inactive); in the assay with T47D, 86.3 µM (inactive); in the assay on UACC-257, 58.6 µM (inactive).
Turning to `COc1cccc(-c2cc(=O)c3ccc(C)nc3[nH]2)c1`, the GI50 is 0.0458 µM (active) in the assay with CAKI-1; 1.96 µM (inactive) with EKVX; 0.0715 µM (active) with HCC 2998; 0.0402 µM in the assay with HCT-15; 0.0904 µM (active) in the assay with HOP-62; 0.0401 µM (active) with HOP-92. Further, the GI50 is 0.0596 µM (active) in the assay on LOX IMVI; 0.0454 µM (active) in the assay with M14; < 0.01 µM (active) with MDA-MB-435; 0.0741 µM (active) with MOLT-4; 0.0403 µM (active) in the assay on Malme-3M; 0.0434 µM (active) with NCI-H226. For the same compound, the GI50 was 0.0448 µM (active) in the assay on NCI-H522; 0.034 µM (active) with RPMI-8226; 0.0541 µM (active) in the assay with SK-MEL-2; 0.0201 µM (active) in the assay with SNB-75; 57.9 µM (inactive) with T47D; 0.0508 µM (active) in the assay with U-251.
In the case of `COc1ccc(-n2c(=O)c3nc[nH]c3n(-c3ccc(OC)cc3)c2=S)cc1`, the GI50 with CAKI-1 was > 100 µM (inactive); with EKVX, > 100 µM (inactive); in the assay on HCC 2998 it was > 100 µM (inactive); in the assay on HCT-15 it was over 100 µM; in the assay with HOP-62 it was > 100 µM (inactive); in the assay with HOP-92 it was > 100 µM (inactive). The GI50 in the assay with LOX IMVI is > 100 µM (inactive); in the assay on M14, > 100 µM (inactive); with MDA-MB-435, > 100 µM (inactive); with MOLT-4, > 100 µM (inactive); in the assay with NCI-H226 it was > 100 µM (inactive); in the assay with NCI-H522, 17.7 µM (inactive). Also, the GI50 in the assay on RPMI-8226, with SK-MEL-2, in the assay with SNB-75, in the assay with T47D, in the assay with U-251 and in the assay on UACC-257 was > 100 µM (inactive) in each case.
As for `CCOC(=O)c1nc2cc(C(F)(F)F)ccc2nc1Oc1ccc(C(=O)OC)cc1`, the GI50 with CAKI-1 was > 100 µM (inactive); in the assay on EKVX, > 100 µM (inactive); with HCC 2998, > 100 µM (inactive); with HCT-15 it was 51.5 µM; in the assay with HOP-92, > 100 µM (inactive); with LOX IMVI, 83.8 µM (inactive). Further, the GI50 with M14 is 64.3 µM (inactive); with MDA-MB-435 it was > 100 µM (inactive); in the assay on MOLT-4 it was > 100 µM (inactive); in the assay on Malme-3M it was > 100 µM (inactive); in the assay on NCI-H226 it was > 100 µM (inactive); in the assay with NCI-H522, 69.2 µM (inactive). The GI50 with RPMI-8226, in the assay on SK-MEL-2, in the assay on SNB-75, in the assay on T47D, in the assay with U-251 and in the assay with UACC-257 was > 100 µM (inactive) in each case.
